Test results reported in patent US5288624A, “Cercosporal fungicide compositions and methods of use” (priority 1987, dated 1994).
Values after ≈ are worked out from the molar mass of the structure shown.

Tests used:
[1] = system: Botrytis; assay: Combination with herbicides, Botrytis agar plate test; type: cell-based, Botrytis cinerea; conditions: herbicide applied singly
[2] = system: Pseudomonas aeruginosa; conditions: Matsueda et al.; cited from earlier work
[3] = system: Staphylococcus aureus; conditions: Matsueda et al.; cited from earlier work
[4] = system: Bacillus subtilis; conditions: Matsueda et al.; cited from earlier work
[5] = system: E. coli; conditions: Matsueda et al.; cited from earlier work
[6] = system: Candida japonica; conditions: Matsueda et al.; cited from earlier work
[7] = system: certain microorganisms; conditions: Matsueda et al. 1980; cited from earlier work
[8] = system: T. mentagrophytes; assay: Effect of the fungicide on dermatophytes (agar incorporation); type: cell-based; conditions: Trichophyton mentagrophytes, 120 h, pH 7.1, 25°, 5 days, read-out: Minimum Inhibitory Concentration, MIC
Method: (§1) These were recent clinical isolates and were cultivated at 25° C. on agar containing the following ingredients in grams per liter:
(§2) Mycelia from the 3 fungi were disintegrated with sterile glass beads in sterile water and 1 drop applied to the center petri dishes containing the same agar as above but to which was added Phaeoramularia fungicide. The fungicide was added at a concentration of from 0.5 μg/ml to 5 μg/ml of the eluate described under "Extraction of the active principle." Griseofulvin was used in comparison. Controls were prepared with the same agar but devoid of fungicide. Five (5) replicates were made for each test.

[9] = system: Microsporum canis; assay: as above; type: cell-based; conditions: 120 h, pH 7.1, 25°, 5 days, read-out: Minimum Inhibitory Concentration, MIC
Method: as §1, §2

[10] = system: Trichophyton rubrum; assay: as above; type: cell-based; conditions: 120 h, pH 7.1, 25°, 5 days, read-out: Minimum Inhibitory Concentration, MIC
Method: as §1, §2

In the case of `CCNc1nc(Cl)nc(NC(C)C)n1` [Atrazine], the “effect of herbicide on Botrytis” value [1] is reported as “no effect”.

For `COc1c(CC(C)O)c2c3c(CC(C)O)c(OC)c(=O)c4c(O)cc5c(c6c(cc(O)c(c1=O)c62)OCO5)c43` (stereo not drawn) [cercosporin], the inhibition of growth [2] is given as “inhibit the growth”, the inhibition of growth [3] is given as “inhibit the growth” and the inhibition of growth [4] is given as “inhibit the growth”. The inhibition of growth [5] was “inhibit the growth”, the inhibition of growth [6] was “inhibit the growth” and the “inhibitory effect on certain microorganisms” value [7] was “inhibitory effect”.

For `CCNc1nc(Cl)nc(NCC)n1` [Simazine], the “effect of herbicide on Botrytis” value [1] was “no effect”.

Work on `COC1=CC(=O)C[C@@H](C)[C@]12Oc1c(Cl)c(OC)cc(OC)c1C2=O` [griseofulvin] yielded an MIC [8] of 10 µg/mL (≈ 28.3 µM), an MIC [9] of 3 µg/mL (≈ 8.5 µM) and an MIC [10] of 1.5 µg/mL (≈ 4.25 µM).

With `COc1nc(C)nc(NC(=O)NS(=O)(=O)c2ccccc2Cl)n1` [Chlorsulfuron] the “effect of herbicide on Botrytis” value [1] was “no effect”.
